Measured values: patent US20260335495A1, “SYNERGISTIC ACTIVITY OF NOVEL COMPOUNDS AGAINST PLANKTONIC AND BIOFILM CELLS OF CLINICALLY RELEVANT PATHOGENS” (priority 2021, published 2026)

Experiments:
Candida albicans SK4b = test: MIC and checkerboard (FICI), planktonic cells; assay type: cell-based; details: for MIC: alone, 24 h, 37 °C
Protocol: (§1) The MIC was determined by the micro broth dilution method in 96-well plates. […] A 10 μL containing 1×10^5 bacterial cells or 2×10^3 fungal cells were added to each well. The inoculated plates were covered with a lid, sealed with Parafilm, and incubated for 24 h at 37 °C with slight rocking on a tilting platform shaker. After incubation, the optical density at 600 nm (OD 600) of the cultures in each well was measured using an xMark™ Microplate Absorbance Spectrophotometer (Bio-Rad). The MIC was defined as the lowest concentration of antimicrobial compound at which the culture OD600 values was similar to uninoculated control wells. MBCs and MFCs were determined by transferring 100 μL from each well with no apparent growth onto appropriate agar plates, followed by incubation for 24 h at 37 °C.
(§2) The concentrations of antimicrobials used were based on previously determined MIC values. […] Microtiter plates were incubated at 37 °C for 24 h, and the results were analyzed. Each test was performed in duplicate and included a growth control without the addition of any antimicrobials.

E. coli SK2 = test: MIC and checkerboard (FICI), planktonic cells; assay type: cell-based; details: for MIC: alone, 24 h, 37 °C
Protocol: as §1, §2

Escherichia coli ON29 = test: MIC and checkerboard (FICI), planktonic cells; assay type: cell-based; details: for MIC: alone, 24 h, 37 °C
Protocol: as §1, §2

Proteus mirabilis ON153 = test: MIC and checkerboard (FICI), planktonic cells; assay type: cell-based; details: for MIC: alone, 24 h, 37 °C
Protocol: as §1, §2

[1] = tested on: Pseudomonas aeruginosa SK1; test: MIC and checkerboard (FICI), planktonic cells; assay type: cell-based; details: for MIC: alone, 24 h, 37 °C
Protocol: as §1, §2

S. epidermidis SK9 = test: MIC and checkerboard (FICI), planktonic cells; assay type: cell-based; details: for MIC: alone, 24 h, 37 °C
Protocol: as §1, §2

Serratia marcescens SK2 = test: MIC and checkerboard (FICI), planktonic cells; assay type: cell-based; details: for MIC: alone, 24 h, 37 °C
Protocol: as §1, §2

[2] = tested on: Staphylococcus epidermidis ON170; test: MIC and checkerboard (FICI), planktonic cells; assay type: cell-based; details: for MIC: alone, 24 h, 37 °C
Protocol: as §1, §2

[3] = tested on: Stenotrophomonas maltophilia ON17; test: MIC and checkerboard (FICI), planktonic cells; assay type: cell-based; details: for MIC: alone, 24 h, 37 °C
Protocol: as §1, §2

MRSA ON184 [4] = test: MIC and checkerboard (FICI), planktonic cells; assay type: cell-based, methicillin-resistant S. aureus; details: for MIC: alone, 24 h, 37 °C
Protocol: as §1, §2

MRSA ON184 [5] = test: MBC/MFC and FMCI, planktonic cells; assay type: cell-based, methicillin-resistant S. aureus; details: for MBC/MFC: alone
Protocol: as §1, §2

[6] = tested on: commonly encountered pathogens; details: cited from earlier work
[7] = high concentrations, ALS for CVADs; cited from earlier work
Klebsiella pneumoniae = details: 40 mg/mL, locked for 21-25 h, catheter segments; cited from earlier work
E. coli = details: 40 mg/mL, locked for 21-25 h, catheter segments; cited from earlier work
S. epidermidis = details: 40 mg/mL, locked for 21-25 h, catheter segments; cited from earlier work
P. aeruginosa = details: 40 mg/mL, locked for 21-25 h, catheter segments; cited from earlier work
C. albicans = details: 40 mg/mL, locked for 21-25 h, catheter segments; cited from earlier work
[8] = 40 mg/mL solution (4% solution) in distilled water; cited from earlier work
[9] = tested on: clinically relevant pathogens; details: 4%; cited from earlier work

| Structure (SMILES) | MIC in combination (Candida albicans SK4b; TE + ET in combination) [%] | MIC (Candida albicans SK4b) [%] | MIC in combination (E. coli SK2; TE + ET in combination) [%] | MIC (E. coli SK2) [%] | MIC in combination (Escherichia coli ON29; TE + ET in combination) [%] | MIC (Escherichia coli ON29) [%] | MIC in combination (Proteus mirabilis ON153; TE + ET in combination) [%] | MIC (Proteus mirabilis ON153) [%] | MIC in combination ([1]; TE + ET in combination) [%] | MIC [1] [%] | MIC in combination (S. epidermidis SK9; TE + ET in combination) [%] | MIC (S. epidermidis SK9) [%] | MIC in combination (Serratia marcescens SK2; TE + ET in combination) [%] | MIC (Serratia marcescens SK2) [%] | MIC in combination ([2]; TE + ET in combination) [%] | MIC [2] [%] | MIC in combination ([3]; TE + ET in combination) [%] | MIC [3] [%] | MIC in combination (MRSA ON184 [4]; TE + ET in combination) [%] | MIC (MRSA ON184 [4]) [%] | further results |
| --- | --- | --- | --- | --- | --- | --- | --- | --- | --- | --- | --- | --- | --- | --- | --- | --- | --- | --- | --- | --- | --- |
| CCO [ET, ethanol] | 1.6 | 6.25 | 6.25 | 12.5 | 3.125 | 12.5 | 1.6 | 6.25 | 3.125 | 3.125 | 0.4 | 6.25 | 3.125 | 6.25 | 0.4 | 3.125 | 0.4 | 6.25 | 0.4 | 6.25 | MBC/MFC in combination (MRSA ON184 [5]; TE + ET in combination): 3.125%; MBC/MFC (MRSA ON184 [5]): 25%; concentration required for a 3-log reduction [6]: ≥ 60%; adverse events [7]: breaches in catheter integrity, systemic toxicity, and protein precipitation causing intraluminal occlusions |
| O=C(O)CN(CCN(CC(=O)O)CC(=O)O)CC(=O)O.[Na].[Na].[Na].[Na] [TE, tetrasodium ethylenediaminetetraacetic acid] | 0.25 | 1 | 0.015 | 0.5 | 0.25 | 0.5 | 0.5 | 1 | 0.031 | 0.25 | 0.015 | 0.063 | 0.5 | 1 | 0.015 | 0.063 | 0.031 | 0.063 | 0.015 | 0.063 | MIC in combination (Candida albicans SK4b; TE + CH in combination): 0.063%; MIC in combination (E. coli SK2; TE + CH in combination): 0.008%; MIC in combination (Escherichia coli ON29; TE + CH in combination): 0.008%; MIC in combination (Proteus mirabilis ON153; TE + CH in combination): 0.063%; MIC in combination ([1]; TE + CH in combination): 0.5%; MIC in combination (S. epidermidis SK9; TE + CH in combination): 0.015%; MIC in combination (Serratia marcescens SK2; TE + CH in combination): 0.063%; MIC in combination ([2]; TE + CH in combination): 0.063%; MIC in combination ([3]; TE + CH in combination): 0.015%; MIC in combination (MRSA ON184 [4]; TE + CH in combination): 0.008%; MBC/MFC in combination (MRSA ON184 [5]; TE + CH in combination): 0.125%; MBC/MFC in combination (MRSA ON184 [5]; TE + ET in combination): 0.031%; MBC/MFC (MRSA ON184 [5]): 2%; biofilm colonization (Klebsiella pneumoniae): reduced biofilm colonization; biofilm colonization (E. coli): reduced biofilm colonization; biofilm colonization (S. epidermidis): reduced biofilm colonization; biofilm colonization (P. aeruginosa): reduced biofilm colonization; biofilm colonization (C. albicans): reduced biofilm colonization; pH [8]: ~ 11.0; biofilm eradication and microbial killing [9]: biofilm eradication and microbial killing ability |
